From PMC10303838, “Atlantic Salmon Gill Epithelial Cell Line (ASG-10) as a Suitable Model for Xenobiotic Biotransformation” (Metabolites, 2023)
Counter-ions that a name gives are not always drawn. Like-named read-outs stand apart in the source and are kept apart here.

Tests used:
[1] = UGT activities in salmon liver microsomes (SLMs) and S9; conditions: SLMs (2 mg/mL) and S9 (4 mg/mL), 20 °C, up to 60 min
ASG-10 [2] = test: CYP activities in ASG-10: metabolite formation from specific substrates (LC-TQMS); conditions: non-induced cells, combined substrates 2; 5; 10 µM, 24 h, 19 °C
ASG-10 [3] = test: BZ metabolism in ASG-10 (LC-HRMS/MS); format: in vitro ADME, Atlantic salmon (Salmo salar); conditions: 303 µM BZ, 24 h, 45,000 or 90,000 cells/well, LC-HRMS peak areas
Description: BZ, an anesthetic commonly used in aquaculture, was used to evaluate the potential activity of N-acetyltransferases (NAT) and esterases in ASG-10, SLMs and S9. The production of BZ-related metabolites was determined by liquid chromatography high-resolution tandem mass spectrometry (LC-HRMS/MS). When available, reference standards were used for the specification of metabolites.
BZ metabolism was investigated in ASG-10 cells plated in a 96-well plate as described in Section 2.2. The culture medium was replaced by fresh medium containing BZ (Table 1).
(§1) BZ biotransformation products were determined using a Q Exactive™ hybrid quadrupole-Orbitrap mass spectrometer equipped with a heated electrospray ion source (HESI-II) and coupled to a Vanquish UHPLC system (Thermo Fisher Scientific). […]
(§2) Mass spectra were acquired in the full scan mode, applying sequential data-dependent top 5 analysis (ddMS2-top5) with an inclusion list containing masses of interest. […] BZ and BZ-related compounds were determined by targeted parallel reaction monitoring (PRM). […]
The mobile phase was composed of solvent A (water) and solvent B (MeOH), both containing 0.1% formic acid. […] Raw data were acquired by Xcalibur (Version 4.0, Thermo Fisher Scientific), and molecular formula assignments and mass error were evaluated within the same software (Elemental Composition tab). […]

[4] = CYP activities in salmon liver microsomes (SLMs) and S9; conditions: both SLMs (2 mg/mL protein) and S9 (4 mg/mL protein), 20 °C, up to 60 min
[5] = set-up: method as in doi:10.1016/S0166-445X(96)00792-8; conditions: channel catfish; cited from earlier work
CYP1A [6] = test system: CYP1A; set-up: method as in PMID 10630570; conditions: primary carp hepatocytes, 20 nM, 18 h; cited from earlier work
CYP1A [7] = test system: CYP1A; set-up: method as in doi:10.1002/etc.5620160509; conditions: cited from earlier work
CYP1A1 [8] = test system: CYP1A1; set-up: method as in PMID 12413795; conditions: BNF exposure; cited from earlier work
CYP1A [9] = test system: CYP1A; set-up: method as in doi:10.1002/etc.5620160509; conditions: PLHC-1, 24 h; cited from earlier work
CYP1A [10] = test system: CYP1A; set-up: method as in PMID 1897246; conditions: rainbow trout liver primary cells, 3.6 to 360 nM BNF, 48 h, dose-dependent; cited from earlier work
CYP1A [11] = test: EROD assay in BNF-stimulated ASG-10; format: cell-based, Atlantic salmon (Salmo salar); conditions: ASG-10, BNF 1 to 100 nM, 24 h
Description: CYP1A induction in BNF-stimulated ASG-10 was measured using the ethoxyresorufin-O-deethylase (EROD) assay. CYP1A converts 7-ethoxyresorufin to resorufin, which can be measured by fluorescence spectroscopy. The assay was performed as described in [17], with minor modifications. Briefly, the cells were seeded in a black 96-well plate as described in Section 2.2. After two days, the cells were incubated with the CYP1A inducer β-naphthoflavone (BNF; 1–100 nM) for 24 h. BNF was dissolved in DMSO. The final DMSO concentration in the cell culture was 0.1%. Appropriate controls containing the same amount of DMSO were included in each experiment. The next day, the culture medium was replaced with 200 µL EROD assay media (DMEM w/o phenol red; 10% FBS, 8 µM 7-ethoxyresorufin), and resorufin fluorescence (excitation: 530 nm/emission: 580 nm) was detected after 60 min using a Spectramax i3x plate reader.

CYP1A [12] = test: CYP1A immunochemical analysis (immunoblot) in BNF-stimulated ASG-10; format: cell-based, Atlantic salmon (Salmo salar); conditions: 24 h
Description: The ASG-10 cells were seeded into 6-well plates as described in Section 2.2. After two days, the cells were stimulated with BNF (1–100 nM, 24 h), a well-known non-toxic inducer of CYP1A protein expression. After exposure, the cells were washed twice in ice-cold PBS and placed at −70 °C until the next day. The cells were then scraped in cell lysis buffer with 0.8% SDS and 1% proteinase inhibitor cocktail added and centrifuged (10,000× g, 1 min) through use of the QIAshredder for homogenization. The protein concentrations were quantified by using the Bio-Rad DC kit (Hercules, CA, USA) and the samples were adjusted to equal protein concentration with lysis buffer before being denatured through the addition of NuPage lithium dodecyl sulfate (LDS) sample buffer and NuPage reducing agent as described by the manufacturer (Invitrogen, Waltham, MA, USA). Blotting was performed using the NuPage Novex system from Invitrogen (Thermo Fisher), applying […] protein per well on a 4–12% NuPage BisTris gel. Separation was performed under reducing conditions for 40 min at 200 V in 3-(N-morpholino) propane sulfonic acid (MOPS)–SDS running buffer using the Novex Sharp pre-stained standard with a range of 3.5–260 kDa. […]

[13] = BZ metabolism in SLMs and S9 (LC-HRMS/MS); conditions: SLMs 1 µM BZ, S9 3 µM BZ (Figure 9 legend: 1 µM), 1 h
Description: The production of BZ-related metabolites was determined by liquid chromatography high-resolution tandem mass spectrometry (LC-HRMS/MS).
Additionally, BZ metabolism was investigated in SLMs (1 µM BZ) and S9 (3 µM BZ) (Table 1). The incubations were first performed separately for phase I and phase II metabolism, and a combined assay was performed afterwards. The reaction mixture (total assay volume 0.5 mL) contained 0.8 mM NADPH, 0.7 mM NADP+, 7.5 mM UDPGA and 0.3 mM UDPAG. Aliquots (150 µL) were drawn at 0, 30 and 60 min and mixed with an equal volume of ice-cold 100% MeCN. […] After filtration (Costar Spin-X® 0.22 mm Nylon filter; Corning, Inc.; Corning, NY, USA), the concentrated samples were analyzed using LC-HRMS/MS.
as §1, §2

CYP2K1 = test system: CYP2K1; set-up: method as in doi:10.1002/etc.5620161220; conditions: juvenile Atlantic salmon; cited from earlier work
CYP3A27 = test system: CYP3A27; set-up: method as in doi:10.1002/etc.5620161220; conditions: juvenile Atlantic salmon; cited from earlier work
CYP1A1 [14] = test system: CYP1A1; set-up: method as in doi:10.1002/etc.5620161220; conditions: juvenile Atlantic salmon; cited from earlier work
ASG-10 [15] = test: CellTox Green cytotoxicity assay in ASG-10; format: cell-based, Atlantic salmon (Salmo salar); conditions: ASG-10, 121 or 303 µM BZ, 48 h
Description: CellTox™ Green assay: The non-toxic dye CellTox™ Green stains DNA in cells with impaired membrane integrity. Binding interactions with DNA produce a fluorescence signal that is proportional to cytotoxicity (necrotic, late apoptotic cells). CellTox™ Green dye was added to the cells as described by the manufacturer (Promega) and fluorescence visualized by microscopy (Zeiss Observer A1, Carl Zeiss, Oberkochen, Germany).

methemoglobin = test system: methemoglobin; set-up: method as in PMID 32974865; conditions: immersion in a sedating BZ dose or repeated anesthesia; cited from earlier work
ASG-10 [16] = test: Alamar Blue assay, metabolic activity/viability of ASG-10; format: cell-based, Atlantic salmon (Salmo salar); conditions: ASG-10, 121 or 303 µM BZ, 24 h
Description: Alamar Blue assay: The metabolic activity/viability of the ASG-10 cell line was measured using the Alamar Blue assay according to the manufacturer’s protocol (Thermo Fisher). After exposure to test compounds with potential cell toxicity, Alamar Blue was added to the cell culture, and incubated for 3 h. […] The fluorescence (excitation: 555 nm/emission: 585 nm) was quantified using a Spectramax i3x plate reader (Molecular Devices, San Jose, CA, USA).

[17] = set-up: method as in doi:10.5772/intechopen.91700; conditions: cited from earlier work
[18] = cited from earlier work
[19] = set-up: method as in PMID 1897251; conditions: rainbow trout, within 3 h, mainly as AcBZ; cited from earlier work
[20] = cited from earlier work; remark: listed apart in the source
Zebrafish embryos = test system: Zebrafish embryos; set-up: method as in PMID 27571242; conditions: 48 h exposure; cited from earlier work
[21] = Incubation of N-acetylated BZ (AcBZ) in SLMs, hydroxylation; format: in vitro ADME, Atlantic salmon; conditions: AcBZ as starting substance, 1 h
Description: A volume of 30 µL of 1 mg/mL BZ in 100% MeOH was evaporated (40 °C, N2) in a 1.5 mL vial. The residue was redissolved in 100 µL acetic anhydride (Sigma) and 100 µL pyridine (Sigma). The vial was placed at room temperature for 18 h. Subsequently, the reaction was stopped by the addition of 200 µL 100% MeOH. After evaporation, the residue was dissolved in 150 µL 100% MeOH (solution A). As control, 30 µL of BZ solution was evaporated and re-dissolved in 150 µL 100% MeOH (solution B). Afterwards, 3 µL of solutions A and B were incubated in SLMs as described above.

[22] = different fish species including rainbow trout and Atlantic salmon

For `CC(=O)NCCc1c[nH]c2ccc(O[C@@H]3O[C@H](C(=O)O)[C@@H](O)[C@H](O)[C@H]3O)cc12` [NAS-GlcA, N-acetyl serotonin β-D-glucuronide], the “Formation of UGT-specific metabolites in SLMs and S9” value [1] was “low”.

With `Cc1ncc2n1-c1ccc(Cl)cc1C(c1ccccc1F)=NC2O` (stereo not shown) [4-OH-MDZ, 4-hydroxymidazolam] the “Formation of metabolites of specific CYP substrates in ASG-10” value (ASG-10 [2]) was “observed”.

For `CCOC(=O)c1ccc(NO)cc1` [BZOH, Benzocaine hydroxylamine], the “BZ metabolites produced in ASG-10 cells” value (ASG-10 [3]) was “produced”.

In the case of `O=c1[nH]c2cc(Cl)c(O)cc2o1` [6-OH-CH, 6-hydroxychlorzoxazone], the “Formation of CYP-specific metabolites / substrate conversion in SLMs and S9” value [4] is reported as “low”.

In the case of `CC(=O)Nc1ccc(C(=O)O)cc1` [AcPABA, p-acetaminobenzoic acid], the “time detected in most tissues after water exposure to BZ” value (from here on “time detected in most tissues”) [5] is listed as “up to 144 h”.

In the case of `O=c1cc(-c2ccccc2)oc2ccc3ccccc3c12` [BNF, β-naphthoflavone], the “increase in the EROD rate” value (CYP1A [6]) is listed as 30 fold, the “increase in EROD enzyme activity” value (CYP1A [7]; PLHC-1, 100 nM BNF) is listed as “eightfold” and the “increase in EROD enzyme activity” value (CYP1A [7]; PLHC-1, 1 µM BNF) is listed as 100 fold. For the same molecule, the “CYP1A1 induction in salmon liver” value (CYP1A1 [8]) was “can be induced”, the “BNF concentration required to produce a detectable CYP1A protein increase” value (CYP1A [9]) was 1 µM and the “maximum EROD rate increase” value (CYP1A [10]) was “nine-fold”. For the same molecule, the “CYP1A enzyme activity (EROD assay)” value (CYP1A [11]) was “concentration-dependent increase”, the CYP1A protein increase (CYP1A [12]; ASG-10, 1 nM BNF) was “visible CYP1A protein increase” and the “CYP1A protein (immunochemical analysis)” value (CYP1A [12]; ASG-10, BNF 1 to 100 nM) was “concentration-dependent increase”.

In the case of `CN1CCN(CCCN2c3ccccc3Sc3ccc(C(F)(F)F)cc32)CC1` [TFP, trifluoperazine dihydrochloride], the “Formation of UGT-specific metabolites in SLMs and S9” value [1] is reported as “not measurable”.

With `Nc1ccc(C(=O)O)cc1` [PABA, p-aminobenzoic acid] the “BZ metabolites in SLM and S9 incubations” value [13] was “not detectable”.

In the case of `CCCCCCCCCc1ccc(O)cc1` [4-nonylphenol], the “CYP2K1 activity in liver” value (CYP2K1) is given as “dose-dependently reduced”, the “CYP3A27 activity in liver” value (CYP3A27) is given as “dose-dependently reduced” and the “CYP1A1 activity in liver” value (CYP1A1 [14]) is given as “dose-dependently reduced”.

In the case of `C=CCN1CC[C@]23c4c5ccc(O[C@@H]6O[C@H](C(=O)O)[C@@H](O)[C@H](O)[C@H]6O)c4O[C@H]2C(=O)CC[C@@]3(O)[C@H]1C5` [NLX-GlcA, naloxone-3β-D glucuronide], the “Formation of UGT-specific metabolites in SLMs and S9” value [1] is reported as “highest metabolite level”.

In the case of `CN1CC[C@@]23CCCC[C@@H]2[C@@H]1Cc1ccc(O)cc13` [DOR, dextrophan], the “Formation of metabolites of specific CYP substrates in ASG-10” value (ASG-10 [2]) is reported as “observed”.

In the case of `CCOC(=O)c1ccc(N)cc1` [BZ, ethyl 4-aminobenzoate], the “time detected in most tissues” value [5] is given as “up to 144 h”, the “Cytotoxicity (Celltox Green assay)” value (ASG-10 [15]) is given as “no cytotoxicic effects” and the “blood levels of methemoglobin” value (methemoglobin) is given as “increased blood levels of methemoglobin”. The “Metabolic activity or viability (Alamar Blue)” value (ASG-10 [16]) was “did not affect”, the “n-octanol/water coefficient (pKOW)” value [17] was 1.44 and the distribution volumes [18, 22] was “rather high”. For the same molecule, the mean residence times [18, 22] was “below 15 min”, the plasma half-life ([18]; salmonids) was “less than 2 h” and the “time to maximal concentrations in blood” value ([18]; under water exposure) was “less than 2 min”. The “share of applied BZ dose eliminated through the gills” value [19] was “about 59%”, the “solubility in more lipidic solvents relative to water” value ([20]; MeOH and chloroform) was ~1000 times and the water solubility ([20]; non-salt BZ, 20 °C) was 400 µg/mL. The “AcBZ and PABA together as share of the total BZ amount” value (Zebrafish embryos) was 90%.

In the case of `CCOC(=O)c1ccc(NC(C)=O)cc1` [AcBZ, acetylbenzocaine], the “time detected in most tissues” value [5] is given as “up to 144 h”, the “BZ metabolites produced in ASG-10 cells” value (ASG-10 [3]) is given as “major biotransformation product” and the “Hydroxylation product after incubation in SLMs” value [21] is given as “no longer detectable”.
